pIC50: −log10 of the molar value.
Legend:
Recombinant human TDO2 = Recombinant human TDO2 (Homo sapiens, UniProt P48775); test: TDO2 Enzymatic Assay; format: biochemical; conditions: recombinant human TDO2 200 nM, L-tryptophan 300 μM, 40 min room temperature, N′-formylkynurenine absorbance 321 nm; read-out: TDO2 bichemical activity*
Protocol: (§1) The TDO2 biochemical inhibitory activity is determined by measuring the decrease in N′-formylkynurenine from tryptophan catalyzed by TDO2 enzyme. Recombinant human TDO2 (200 nM), L-tryptophan (300 μM), L-ascorbic acid (20 mM), methylene Blue (20 μM), catalase (0.2 mg/mL), and serial dilutions of the test compounds in a total volume of […] containing DMSO (with final DMSO concentration of 0.5%) and a pH 7.5 buffer containing potassium phosphate (50 mM) were added into each well in a 96-well plate. After incubation at room temperature for 40 min, the absorbance of the reaction mixture was read at 321 nm to measure the formation of N′-formylkynurenine by SpectraMax microplate reader. Percent inhibition of the test compounds was determined by measuring the decrease in N′-formylkynurenine as compared to the control of DMSO vehicle, which was calculated by formula of (WC-WT)/WC, where WC is the mean absorbance of the control well minus blank well; WT is the mean absorbance of the test well minus the blank well. Data was analyzed by GraphPad Prism 5 and the IC50 values were obtained by non-linear regression.
The IC50 values of TDO2 biochemical activity for the examples disclosed herein are listed in Table 2, A: ≤0.1 μM; B: >0.10 μM and ≤0.5 μM; C: >0.5 μM and ≤1.0 μM; and D: >1.0 μM.

[1] = target: T1, TDO2 in A172 cancer cells (Homo sapiens, UniProt P48775); test: TDO2 Cellular Assay (kynurenine production in A172 cancer cells); format: cell-based; conditions: L-Trp 1 mM, 24 hours incubation, kynurenine at 490 nm
T1 construct: endogenous in cells; host or cells: A172 cancer cells
T1 sequence (P48775 whole entry): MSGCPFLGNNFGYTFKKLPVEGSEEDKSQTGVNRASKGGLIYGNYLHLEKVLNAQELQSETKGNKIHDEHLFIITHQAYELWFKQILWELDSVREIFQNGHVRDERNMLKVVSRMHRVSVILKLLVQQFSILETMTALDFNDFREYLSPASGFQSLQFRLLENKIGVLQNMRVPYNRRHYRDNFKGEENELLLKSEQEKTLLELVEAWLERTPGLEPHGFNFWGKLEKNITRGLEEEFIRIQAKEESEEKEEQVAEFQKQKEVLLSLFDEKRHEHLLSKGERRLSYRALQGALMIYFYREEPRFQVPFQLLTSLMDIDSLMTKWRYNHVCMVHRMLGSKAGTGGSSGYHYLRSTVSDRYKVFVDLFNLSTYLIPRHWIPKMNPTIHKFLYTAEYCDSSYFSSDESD
Summary of the method: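 A172 cells seeded overnight, then given 1 mM L-Trp and test compound (0–25 μM, 0.25% DMSO) for 24 h at 37 °C. Supernatant treated with TCA at 50 °C to convert N-formylkynurenine, kynurenine detected with p-dimethylaminobenzaldehyde at 490 nm; IC50 by non-linear regression of inhibition versus DMSO control.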

Recombinant human IDO1 = Recombinant human IDO1 (Homo sapiens, UniProt P14902); test: IDO1 Enzymatic Assay; conditions: recombinant human IDO1 40 nM, L-tryptophan 100 μM, 40 min room temperature, N′-formylkynurenine absorbance 321 nm; read-out: IDO1 biochemical activity*
Sequence of Recombinant human IDO1 (P14902 whole entry): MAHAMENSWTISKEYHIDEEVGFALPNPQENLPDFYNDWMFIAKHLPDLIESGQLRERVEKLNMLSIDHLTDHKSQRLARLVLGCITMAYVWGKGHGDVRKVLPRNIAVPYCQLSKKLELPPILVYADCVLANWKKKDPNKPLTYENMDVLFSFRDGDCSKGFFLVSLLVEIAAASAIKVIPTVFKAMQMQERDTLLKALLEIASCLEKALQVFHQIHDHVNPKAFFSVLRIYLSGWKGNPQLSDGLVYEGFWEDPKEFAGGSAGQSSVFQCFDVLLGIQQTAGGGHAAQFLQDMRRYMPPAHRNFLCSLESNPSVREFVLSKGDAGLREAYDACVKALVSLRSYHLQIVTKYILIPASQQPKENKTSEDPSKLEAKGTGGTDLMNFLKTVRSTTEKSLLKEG
Protocol: as §1, with “IDO1” for “TDO2”, “IDO1 (40” for “TDO2 (200”, “(100” for “(300”, “(WC−WT)/WC,” for “(WC-WT)/WC,”
The IC50 values of IDO1 biochemical activity for the examples disclosed herein are listed in Table 2, A: ≤0.1 μM; B: >0.10 μM and ≤0.5 μM; C: >0.5 μM and ≤1.0 μM; and D: >1.0 μM.

[2] = target: T2, IDO1 in Hela cancer cells (Homo sapiens, UniProt P14902); test: IDO1 Cellular Assay (kynurenine production in IFN-γ stimulated Hela cancer cells); format: cell-based; conditions: human IFN-γ 50 ng/mL, 48 hours incubation, kynurenine at 490 nm
T2 construct: endogenous in cells; host or cells: Hela cancer cells stimulated with human IFN-γ
T2 sequence (P14902 whole entry): as above
Summary of the method: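 HeLa cells stimulated with 50 ng/mL IFN-γ (final) and treated 48 h with compound (0–25 μM final, 0.25% DMSO). Supernatant kynurenine measured after TCA hydrolysis and p-dimethylaminobenzaldehyde reaction at 490 nm; inhibition vs DMSO control, IC50 by non-linear regression.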

Sequence of Recombinant human TDO2 (P48775 whole entry): as the sequence (P48775 whole entry) above

SMILES | pIC50 (Recombinant human TDO2) | pIC50 [1] | pIC50 (Recombinant human IDO1) | pIC50 [2]
O[C@@]1(c2cc(Cl)cc3[nH]ncc23)C[C@H]2C[C@H]2C1 [Example 25, (1R,3r,5S)-3-(6-chloro-1H-indazol-4-yl)bicyclo[3.1.0]hexan-3-ol] | ≥ 7.00 | ≥ 6.30 | 6.00 to 6.30 | 5.30 to 6.00
CC(=O)N1C[C@@H]2C[C@@](O)(c3cc(Cl)cc4[nH]ncc34)C[C@@H]2C1 [Example 22, 1-((3aR,5r,6aS)-5-(6-chloro-1H-indazol-4-yl)-5-hydroxyhexahydrocyclopenta[c]pyrrol-2(1H)-yl)ethanone] | ≥ 7.00 | ≥ 6.30 | < 6.00 | < 5.30
CC(=O)N1CC2CN(c3cc(Cl)cc4[nH]ncc34)CC2C1(C)C (stereo not shown) [Example 18, 1-(5-(6-chloro-1H-indazol-4-yl)-1,1-dimethylhexahydropyrrolo[3,4-c]pyrrol-2(1H)-yl)ethanone] | ≥ 7.00 | ≥ 6.30 | 6.00 to 6.30 | 
CC1(C)C2CN(c3cc(Cl)cc4[nH]ncc34)CC2CN1S(C)(=O)=O (single isomer, unassigned) [Example 1b] | ≥ 7.00 | ≥ 6.30 | 6.30 to 7.00 | < 5.30
CC1(C)C2CN(c3cc(Cl)cc4[nH]ncc34)CC2CN1S(C)(=O)=O (single isomer, unassigned) [Example 1a] | ≥ 7.00 | 6.00 to 6.30 | < 6.00 | 
CS(=O)(=O)N1C[C@@H]2C[C@@](O)(c3cc(Cl)cc4[nH]ncc34)C[C@@H]2C1 [Example 2, (3aR,5r,6aS)-5-(6-chloro-1H-indazol-4-yl)-2-(methylsulfonyl)octahydrocyclopenta[c]pyrrol-5-ol] | ≥ 7.00 | ≥ 6.30 | 6.30 to 7.00 | 6.00 to 6.30

From patent US11548868B2, “Heterocyclic compounds, compositions comprising heterocyclic compound, and methods of use thereof” (JS INNOPHARM (SHANGHAI) LTD, priority 2017, dated 2023)
